Where two headings read alike, the source gives them in different places.
Tested on: reverse transcriptase
Protocol: Thaw all components, except the reverse transcriptase, at room temperature. Mix gently, but thoroughly, and then centrifuge at 4° C. to collect contents to the bottom of the tube. Chill on ice before using. Centrifuge again briefly at 4° C. if needed.
To a mixture of Taq DNA polymerase, dNTP (dATP, dCTP, dGTP and dTTP), magnesium chloride, stabilizers and SdC, is added a forward primer, a reverse primer, nuclease-free water and a reverse transcriptase. Assemble the reaction cocktail with all required components except sample template (total RNA) and dispense equal aliquots into each reaction tube. Add target sample (RNA template) to each reaction as the final step 5-10 μl volumes.
The reaction mixture is then incubated in a real-time thermal detection system as follows: • cDNA synthesis: 10 min at 50° C. • reverse transcriptase inactivation: 5 min at 95° C. • PCR cycling and detection (30 to 45 cycles): 10 sec at 95° C., followed by 30 sec at 55° C. to 60° C.

Compound | inhibition of reverse transcriptase in one-step RT-PCR (4 ng/μl suramin vs absence) | specificity of one-step RT-PCR (4 ng/μl suramin vs absence) | inhibition of reverse transcriptase in one-step RT-PCR (0.1, 0.5, 2 and 10 nM SdC) | specificity of one-step RT-PCR (0.1, 0.5, 2 and 10 nM SdC)
Cc1ccc(C(=O)Nc2ccc(S(=O)(=O)O)c3cc(S(=O)(=O)O)cc(S(=O)(=O)O)c23)cc1NC(=O)c1cccc(NC(=O)Nc2cccc(C(=O)Nc3cc(C(=O)Nc4ccc(S(=O)(=O)O)c5cc(S(=O)(=O)O)cc(S(=O)(=O)O)c45)ccc3C)c2)c1 [suramin] | reduces the inhibition of reverse transcriptase | significantly improves the specificity of one-step RT-PCR | – | –
phosphorothioate oligodeoxycytosine [SdC] | – | – | reduces the inhibition of reverse transcriptase | significantly improves the specificity of one-step RT-PCR
